Data from patent US11560372B2, “Heterocyclic compounds useful as modulators of acetylcholine receptors” (TAKEDA PHARMACEUTICAL COMPANY LIMITED, priority 2017, dated 2023).

Legend:
Male SD rats = test: Rat defecation experiment; format: in vivo; conditions: mean±standard error
Procedure: Rat Defecation Experiment
Male SD rats (5-6 weeks old) were used after an acclimation period for about 1 week. A test drug (1 mg/kg, 3 mg/kg, or 10 mg/kg) was suspended in 0.5% methylcellulose solution and orally administered at a volume of 5 mL/kg, and the number of feces 2 hr later was counted. Only 0.5% methylcellulose was administered to a solvent administration group.

MDR1 = target: T1, MDR1 (Homo sapiens, UniProt P08183); test: MDR1 membrane permeability test; format: in vitro ADME; conditions: pH 7.4, efflux ratio (ER), Papp B to A / A to B, human MDR1-expressing LLC-PK1 cells, read-out: MDR1 substrate screening 1 μM (MDRSUB1)/Ratio (NUMBER)
T1 construct: expressed in transfected cells
T1 sequence (P08183 whole entry): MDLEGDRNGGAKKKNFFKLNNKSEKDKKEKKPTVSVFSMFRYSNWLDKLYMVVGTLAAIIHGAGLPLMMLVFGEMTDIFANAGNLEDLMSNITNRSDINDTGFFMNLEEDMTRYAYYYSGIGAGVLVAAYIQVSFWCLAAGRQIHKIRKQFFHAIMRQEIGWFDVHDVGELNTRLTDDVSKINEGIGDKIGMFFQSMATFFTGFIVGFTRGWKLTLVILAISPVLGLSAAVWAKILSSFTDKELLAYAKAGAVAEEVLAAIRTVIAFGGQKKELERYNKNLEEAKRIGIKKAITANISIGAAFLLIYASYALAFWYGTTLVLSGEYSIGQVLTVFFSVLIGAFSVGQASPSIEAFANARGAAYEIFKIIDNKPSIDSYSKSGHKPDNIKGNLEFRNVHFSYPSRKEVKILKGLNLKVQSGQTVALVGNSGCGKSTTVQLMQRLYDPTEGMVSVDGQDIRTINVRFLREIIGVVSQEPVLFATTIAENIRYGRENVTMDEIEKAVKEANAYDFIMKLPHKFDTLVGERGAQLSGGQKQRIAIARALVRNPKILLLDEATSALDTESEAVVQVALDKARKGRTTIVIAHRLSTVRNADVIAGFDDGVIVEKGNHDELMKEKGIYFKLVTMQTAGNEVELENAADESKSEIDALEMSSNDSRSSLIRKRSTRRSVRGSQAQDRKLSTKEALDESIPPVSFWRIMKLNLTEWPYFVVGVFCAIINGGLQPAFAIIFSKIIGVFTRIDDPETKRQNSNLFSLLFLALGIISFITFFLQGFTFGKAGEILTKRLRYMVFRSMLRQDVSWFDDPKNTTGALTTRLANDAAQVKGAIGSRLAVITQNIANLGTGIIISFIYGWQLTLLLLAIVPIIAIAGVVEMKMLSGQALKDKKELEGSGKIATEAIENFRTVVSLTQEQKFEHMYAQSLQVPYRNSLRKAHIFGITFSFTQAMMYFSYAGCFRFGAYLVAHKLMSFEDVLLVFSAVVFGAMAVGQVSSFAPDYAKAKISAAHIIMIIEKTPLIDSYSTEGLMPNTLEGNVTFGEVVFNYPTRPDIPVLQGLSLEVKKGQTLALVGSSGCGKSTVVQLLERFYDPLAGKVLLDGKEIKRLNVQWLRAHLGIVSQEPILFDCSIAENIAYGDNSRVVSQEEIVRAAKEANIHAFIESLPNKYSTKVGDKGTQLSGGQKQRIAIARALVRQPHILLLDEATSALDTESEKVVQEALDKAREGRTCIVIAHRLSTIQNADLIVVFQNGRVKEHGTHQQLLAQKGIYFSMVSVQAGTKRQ
Summary of the method: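 Human MDR1-expressing LLC-PK1 cells were grown for 3 days on 96-well polyethylene terephthalate Transwell supports (0.4 μm pores, 0.143 cm^2) seeded at 3.45×10^4 cells/well. After a 30 min preincubation in M199 medium with 10 mmol/L HEPES and 1% BSA (pH 7.4), drug was added apically or basolaterally. After 1 hr at 37° C, the opposite side was sampled and analyzed by LC-MS/MS. Efflux ratio was calculated from Papp B to A versus A to B.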

| Compound | number of feces 2 hr later (Male SD rats; 1 mg/kg orally) | efflux ratio at 1 hr, 1 μM (MDR1) | number of feces 2 hr later (Male SD rats; 3 mg/kg orally) | number of feces 2 hr later (Male SD rats; 10 mg/kg orally) |
| --- | --- | --- | --- | --- |
| COCCNC(=O)c1ccc(Cc2cc3c(=O)n([C@H]4CCOC[C@@H]4O)cnc3c(C)c2C)cc1F [Example 66, 1,5-anhydro-2,3-dideoxy-3-(6-(3-fluoro-4-((2-methoxyethyl)carbamoyl)benzyl)-7,8-dimethyl-4-oxoquinazolin-3(4H)-yl)-L-threo-pentitol] | 9.9 ± 1.0 | 7 |  |  |
| CNC(=O)c1ccc(Cc2cc3c(=O)n([C@H]4CCOC[C@@H]4O)cnc3c(C)c2C)cc1F [Example 3, 1,5-anhydro-2,3-dideoxy-3-(6-(3-fluoro-4-(methylcarbamoyl)benzyl)-7,8-dimethyl-4-oxoquinazolin-3(4H)-yl)-L-threo-pentitol] | 7.4 ± 0.7 | 6 | 7.8 ± 1.4 |  |
| Cc1nn(C)cc1-c1ccc(Cc2cc3c(=O)n([C@H]4CCOC[C@@H]4O)cnc3c(C)c2C)cn1 [Example 5, 1,5-anhydro-2,3-dideoxy-3-(6-((6-(1,3-dimethyl-1H-pyrazol-4-yl)pyridin-3-yl)methyl)-7,8-dimethyl-4-oxoquinazolin-3(4H)-yl)-L-threo-pentitol] |  | 15 |  |  |
| Cc1c(Cc2ccc(C(=O)NC[C@H]3CCCO3)c(F)c2)cc2c(=O)n([C@H]3CCOC[C@@H]3O)cnc2c1C [Example 81, 1,5-anhydro-2,3-dideoxy-3-(6-(3-fluoro-4-(((2R)-tetrahydrofuran-2-ylmethyl)carbamoyl)benzyl)-7,8-dimethyl-4-oxoquinazolin-3(4H)-yl)-L-threo-pentitol] | 6.9 ± 1.1 | 8.6 | 7.0 ± 0.8 | 11.5 ± 1.1 |
| Cc1c(Cc2ccc(-c3cnn(C)c3)nc2)cc2c(=O)n([C@H]3CCOC[C@@H]3O)cnc2c1C [Example 6, 1,5-anhydro-2,3-dideoxy-3-(7,8-dimethyl-6-((6-(1-methyl-1H-pyrazol-4-yl)pyridin-3-yl)methyl)-4-oxoquinazolin-3(4H)-yl)-L-threo-pentitol] |  | 11 |  |  |
| CNC(=O)c1ccc(Cc2cc3c(=O)n([C@H]4CCOC[C@@H]4O)nnc3c(Cl)c2C)cc1F [Example 19, 1,5-anhydro-3-(8-chloro-6-(3-fluoro-4-(methylcarbamoyl)benzyl)-7-methyl-4-oxo-1,2,3-benzotriazin-3(4H)-yl)-2,3-dideoxy-L-threo-pentitol] |  | 4.6 |  |  |
| Cc1c(Cc2ccc(-c3cn(C)nn3)nc2)cc2c(=O)n([C@H]3CCOC[C@@H]3O)cnc2c1C [Example 2, 1,5-anhydro-2,3-dideoxy-3-(7,8-dimethyl-6-((6-(1-methyl-1H-1,2,3-triazol-4-yl)pyridin-3-yl)methyl)-4-oxoquinazolin-3(4H)-yl)-L-threo-pentitol] |  | 18 |  |  |
